pIC50: −log10 of the molar value.
Assays:
[1] = test system: B16–F10 murine melanoma cells; assay: MTT cell proliferation assay, B16–F10 cells; type: cell-based; conditions: Mus musculus, 72 h treatment, untreated control = 100% viability, read-out: IC50, growth inhibition of B16–F10 cells
Experimental: (§1) These studies were performed using a 3-(4,5-dimethylthiazol-2-yl)-2,5-diphenyltetrazolium bromide (MTT) assay, with increasing concentration levels of each compound (0–200 μg/mL). Cell viability was determined after treatment for 72 h, by absorption of a formazan dye.
(§2) […] ATTC HTB-38), Hep G2 human hepatocyte carcinoma cells (ECACC 85011430), nontumor human epithelial lung fibroblast cells HPF (ScienCell catalog (cat.) no. 3300), nontumor rat ileum cells IEC-18 (ECACC no. 88011801), and nontumor human embryo liver cells (ECACC 89121403) were cultured in DMEM medium supplemented with 2 mM glutamine, 10% heat-inactivated fetal bovine serum (FCS), 10.000 units/mL penicillin, and […]. These cells were incubated at 37 °C in an atmosphere of 5% CO2 and 95% humidity. The culture media were changed every 48 h, and the confluent cultures were separated with a trypsin solution (0.25% EDTA). Subconfluent monolayer cells were used in all experiments. All cell lines used were provided by the cell bank of the University of Granada (Spain).
(§3) The effect of the synthesized compounds on the viability of tumor cells was assessed using an MTT assay, based on the ability of living cells to cleave the tetrazolium ring, thus producing formazan, which absorbs at 570 nm. […] For an evaluation of the cytotoxic effects of these compounds, the cells were seeded in 96-well plates at an initial density of 5 × 10^3 B16–F10 cells, 6 × 10^3 HT29 cells, 15 × 10^3 Hep G2 cells, 8 × 10^3 HPF cells, 15 × 10^3 IEC-18 cells, and 11 × 10^3 WRL68 cells, per well. After incubation for 24 h, the cells were treated with the synthesized compounds in triplicate, at different concentrations (0–200 μg/mL), and incubated for 72 h. Thereafter, 100 μL of MTT solution (0.5 mg/mL) were added to each well. After 2 h of incubation, the cells were washed twice with phosphate buffered saline (PBS), and the formazan was resuspended in 100 μL of DMSO. Relative cell viability, with respect to untreated control cells, was measured by absorbance at 550 nm on an ELISA plate reader (Tecan Sunrise MR20-301, TECAN, Austria). […] These experiments were measured and compared to the control after 72 h of treatment.

[2] = test system: Hep G2 human hepatocyte carcinoma cells; assay: MTT cell proliferation assay, Hep G2 cells; type: cell-based; conditions: HepG2, 72 h treatment, untreated control = 100% viability, read-out: IC50, growth inhibition of Hep G2 cells
Experimental: as §1, §2, §3

[3] = test system: HT29 human colon adenocarcinoma cells; assay: MTT cell proliferation assay, HT29 cells; type: cell-based; conditions: HT-29, 72 h treatment, untreated control = 100% viability, read-out: IC50, growth inhibition of HT29 cells
Experimental: as §1, §2, §3

[4] = test system: B16-F10, HT29, and Hep G2 cancer cell lines; assay: MTT assay, statements over the three cancer cell lines; type: cell-based; conditions: 72 h, read-out: IC50 (cytotoxicity), cell line not distinguished
Experimental: as §1, with “dye. […] In these three cancer cell lines, the concentration of the compounds that reduced the response by half (IC50) was determined (Table 1).” for “dye.”
The effect of the synthesized compounds on the viability of tumor cells was assessed using an MTT assay, based on the ability of living cells to cleave the tetrazolium ring, thus producing formazan, which absorbs at 570 nm. The MA conjugates (1–12) were assayed against the selected cancer cell lines. For an evaluation of the cytotoxic effects of these compounds, the cells were seeded in 96-well plates at an initial density of 5 × 10^3 B16–F10 cells, 6 × 10^3 HT29 cells, 15 × 10^3 Hep G2 cells, 8 × 10^3 HPF cells, 15 × 10^3 IEC-18 cells, and 11 × 10^3 WRL68 cells, per well. After incubation for 24 h, the cells were treated with the synthesized compounds in triplicate, at different concentrations (0–200 μg/mL), and incubated for 72 h. […] Relative cell viability, with respect to untreated control cells, was measured by absorbance at 550 nm on an ELISA plate reader (Tecan Sunrise MR20-301, TECAN, Austria). […] These experiments were measured and compared to the control after 72 h of treatment.

Compound | pIC50 [1] | pIC50 [3] | melting point [°C] | pIC50 [2] | pIC50 [4]
CC1(C)CC[C@]2(C(=O)NCCCCCCCCCCNC(=O)/C=C/c3ccc(O)cc3)CC[C@]3(C)C(=CC[C@@H]4[C@@]5(C)C[C@@H](O)[C@H](O)C(C)(C)[C@@H]5CC[C@]43C)[C@@H]2C1 [Compound 9, 2α,3β-Dihydroxy-N-(10′-((E)-3″-(4‴-hydroxyphenyl)acrylamido)decyl)olean-12-en-28-amide] | < 5.00 | < 5.00 | 104 to 106 | < 5.00 | –
Cc1cc(=O)oc2cc(NC(=O)[C@]34CCC(C)(C)C[C@H]3C3=CC[C@@H]5[C@@]6(C)C[C@@H](O)[C@H](O)C(C)(C)[C@@H]6CC[C@@]5(C)[C@]3(C)CC4)ccc12 [Compound 11, 2α,3β-dihydroxy-N-(4-methyl-2-oxo-2H-chromen-7-yl)-olean-12-en-28-amide] | < 5.00 | < 5.00 | – | < 5.00 | < 5.00
Cc1cc(=O)oc2cc(NC(=O)[C@]34CCC(C)(C)C[C@H]3C3=CC[C@@H]5[C@@]6(C)C[C@@H](OC(=O)c7cc8ccccc8oc7=O)[C@H](OC(=O)c7cc8ccccc8oc7=O)C(C)(C)[C@@H]6CC[C@@]5(C)[C@]3(C)CC4)ccc12 [Compound 12, N-(4‴-Methyl-2‴-oxo-2‴H-chromen-7‴-yl)-2α,3β-bis((2′-oxo-2′H-chromene-3′-carbonyl)oxy)-olean-12-en-28-amide] | < 5.00 | < 5.00 | 206 to 208 | < 5.00 | < 5.00
O=C(O)Cc1cc(=O)oc2cc(O)ccc12 [HCAA, 7-hydroxycoumarinyl-4-acetic acid, reference compound] | < 5.00 | < 5.00 | – | < 5.00 | –
CC1(C)CC[C@]2(C(=O)O)CC[C@]3(C)C(=CC[C@@H]4[C@@]5(C)C[C@@H](O)[C@H](O)C(C)(C)[C@@H]5CC[C@]43C)[C@@H]2C1 [MA (I), 2α,3β-dihydroxyolean-12-en-28-oic acid, reference compound] | < 5.00 | < 5.00 | – | < 5.00 | –
O=C(O)/C=C/c1ccc(O)cc1 [PCA, p-coumaric acid, reference compound] | < 5.00 | < 5.00 | – | < 5.00 | –

Continued, in another order:

pIC50 [1] | pIC50 [3] | melting point [°C] | Compound | pIC50 [2] | pIC50 [4]
< 5.00 | < 5.00 | – | O=C(O)c1cc2ccccc2oc1=O [C3CA, coumarin-3-carboxylic acid, reference compound] | < 5.00 | –
< 5.00 | < 5.00 | 73 to 75 | CC1(C)CC[C@]2(C(=O)NCCCCCCNC(=O)c3cc4ccccc4oc3=O)CC[C@]3(C)C(=CC[C@@H]4[C@@]5(C)C[C@@H](O)[C@H](O)C(C)(C)[C@@H]5CC[C@]43C)[C@@H]2C1 [Compound 2, 2α,3β-Dihydroxy-N-(6′-(2″-oxo-2″H-chromene-3″-carboxamido)hexyl)olean-12-en-28-amide] | < 5.00 | –
< 5.00 | < 5.00 | 86 to 88 | CC1(C)CC[C@]2(C(=O)NCCCCCCCCCCNC(=O)c3cc4ccccc4oc3=O)CC[C@]3(C)C(=CC[C@@H]4[C@@]5(C)C[C@@H](O)[C@H](O)C(C)(C)[C@@H]5CC[C@]43C)[C@@H]2C1 [Compound 3, 2α,3β-Dihydroxy-N-(10′-(2″-oxo-2″H-chromene-3″-carboxamido)decyl)olean-12-en-28-amide] | < 5.00 | –
< 5.00 | < 5.00 | 139 to 141 | CC1(C)CC[C@]2(C(=O)NCCCCCCNC(=O)Cc3cc(=O)oc4cc(O)ccc34)CC[C@]3(C)C(=CC[C@@H]4[C@@]5(C)C[C@@H](O)[C@H](O)C(C)(C)[C@@H]5CC[C@]43C)[C@@H]2C1 [Compound 5, 2α,3β-Dihydroxy-N-(6′-(2″-(7‴-hydroxy-2‴-oxo-2‴H-chromen-4‴-yl)acetamido)hexyl)olean-12-en-28-amide] | < 5.00 | –
< 5.00 | < 5.00 | 120 to 122 | CC1(C)CC[C@]2(C(=O)NCCCCCCCCCCNC(=O)Cc3cc(=O)oc4cc(O)ccc34)CC[C@]3(C)C(=CC[C@@H]4[C@@]5(C)C[C@@H](O)[C@H](O)C(C)(C)[C@@H]5CC[C@]43C)[C@@H]2C1 [Compound 6, 2α,3β-Dihydroxy-N-(10′-(2″-(7‴-hydroxy-2‴-oxo-2‴H-chromen-4‴-yl)acetamido)decyl)olean-12-en-28-amide] | < 5.00 | –
< 5.00 | < 5.00 | 76 to 78 | CC1(C)CC[C@]2(C(=O)NCCCCCCNC(=O)/C=C/c3ccc(O)cc3)CC[C@]3(C)C(=CC[C@@H]4[C@@]5(C)C[C@@H](O)[C@H](O)C(C)(C)[C@@H]5CC[C@]43C)[C@@H]2C1 [Compound 8, 2α,3β-Dihydroxy-N-(6′-((E)-3″-(4‴-hydroxyphenyl)acrylamido)hexyl)olean-12-en-28-amide] | < 5.00 | –

From PMC8476055, “Synthesis and Biological Activity of Triterpene–Coumarin Conjugates” (Journal of Natural Products, 2021)
